Assay results: patent publication US12577206B2 (BRISTOL-MYERS SQUIBB COMPANY, priority 2020, dated 2026)

Columns and labels:
[1] = molecular target: T1, human FPR2 (Homo sapiens, UniProt P25090); test: FPR2 cyclic adenosine monophosphate (cAMP) assay; assay type: cell-based; conditions: CHO cells overexpressing human FPR2; forskolin 5 μM; inhibition of cAMP production; HTRF; read-out: hFPR2 cAMP2 EC50
T1 sequence (P25090 1-351): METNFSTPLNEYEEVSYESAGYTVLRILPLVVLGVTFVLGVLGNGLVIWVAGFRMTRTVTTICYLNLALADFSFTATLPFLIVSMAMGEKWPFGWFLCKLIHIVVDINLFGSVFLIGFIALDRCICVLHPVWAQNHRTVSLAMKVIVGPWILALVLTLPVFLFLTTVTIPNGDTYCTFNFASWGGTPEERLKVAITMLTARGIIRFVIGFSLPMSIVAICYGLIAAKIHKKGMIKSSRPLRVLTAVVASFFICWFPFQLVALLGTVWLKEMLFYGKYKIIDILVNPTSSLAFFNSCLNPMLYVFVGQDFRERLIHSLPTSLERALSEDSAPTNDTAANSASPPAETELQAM
In short: (§1)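 CHO/hFPR1 4,000 cells/well, forskolin 10 μM final; CHO/hFPR2 2,000 cells/well, forskolin 5 μM final. IBMX 200 μM, DMSO 1%, DPBS + Ca/Mg + 0.1% BSA, 30 min rt. HTRF cAMP; 4-PL fit.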

[2] = molecular target: T2, human FPR1 (Homo sapiens, UniProt P21462); test: FPR1 cyclic adenosine monophosphate (cAMP) assay; assay type: cell-based; conditions: CHO cells overexpressing human FPR1; forskolin 10 μM; inhibition of cAMP production; HTRF; read-out: hFPR1 cAMP2 EC50
T2 sequence (P21462 1-350): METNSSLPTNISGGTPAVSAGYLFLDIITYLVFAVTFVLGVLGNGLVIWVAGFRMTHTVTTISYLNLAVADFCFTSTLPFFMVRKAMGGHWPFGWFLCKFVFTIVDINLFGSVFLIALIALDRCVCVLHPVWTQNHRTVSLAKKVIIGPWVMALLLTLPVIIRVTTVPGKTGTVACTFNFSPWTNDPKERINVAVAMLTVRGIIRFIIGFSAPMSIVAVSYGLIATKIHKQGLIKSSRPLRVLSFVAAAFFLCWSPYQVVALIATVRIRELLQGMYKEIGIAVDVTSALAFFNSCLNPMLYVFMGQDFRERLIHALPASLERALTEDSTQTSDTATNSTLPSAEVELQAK
In short: as §1

| Structure (SMILES) | EC50 [1] | EC50 [2] |
| --- | --- | --- |
| COc1cc(F)c(-c2c(NC(=O)c3ccc(OC(F)F)cc3)c(=O)n(-c3ccccc3Cl)n2C)c(F)c1 [Example 171, N-[2-(2-chlorophenyl)-5-(2,6-difluoro-4-methoxyphenyl)-1-methyl-3-oxo-2,3-dihydro-1H-pyrazol-4-yl]-4-(difluoromethoxy)benzamide] | 12 nM | > 10000 nM |
| Cn1c(-c2c(F)cc(Cl)cc2F)c(NC(=O)c2ccc(OC(F)(F)F)cc2)c(=O)n1-c1cccc(C(C)(C)O)n1 [Example 406, N-(5-(4-chloro-2,6-difluorophenyl)-2-(6-(2-hydroxypropan-2-yl)pyridin-2-yl)-1-methyl-3-oxo-2,3-dihydro-1H-pyrazol-4-yl)-4-(trifluoromethoxy)benzamide] | 12 nM | 1600 nM |
| COc1cc(F)c(-c2c(NC(=O)c3ccc(OC(F)F)cc3)c(=O)n(-c3ncccc3OC(F)F)n2C)c(F)c1 [Example 158, N-[5-(2,6-difluoro-4-methoxyphenyl)-2-[3-(difluoromethoxy)pyridin-2-yl]-1-methyl-3-oxo-2,3-dihydro-1H-pyrazol-4-yl]-4-(difluoromethoxy)benzamide] | 13 nM | > 10000 nM |
| COc1cc(F)c(-c2c(NC(=O)c3ccc(OC(F)F)cc3)c(=O)n(-c3nc(NC4(C)CC4)ccc3C(F)(F)F)n2C)c(F)c1 [Example 266, N-[5-(2,6-difluoro-4-methoxyphenyl)-1-methyl-2-{6-[(1-methylcyclopropyl)amino]-3-(trifluoromethyl)pyridin-2-yl}-3-oxo-2,3-dihydro-1H-pyrazol-4-yl]-4-(difluoromethoxy)benzamide] | 4 nM | > 10000 nM |
| COc1ccc(-c2c(NC(=O)c3ccc(OC(F)F)cc3)c(=O)n(-c3nc(N4CCC(C)(O)CC4)ccc3C(F)(F)F)n2C)c(F)c1 [Example 313, 4-(difluoromethoxy)-N-[5-(2-fluoro-4-methoxyphenyl)-2-[6-(4-hydroxy-4-methylpiperidin-1-yl)-3-(trifluoromethyl)pyridin-2-yl]-1-methyl-3-oxo-2,3-dihydro-1H-pyrazol-4-yl]benzamide] | 1 nM | 210 nM |
| COc1cc(F)c(-c2c(NC(=O)c3ccc(OC(F)F)cc3)c(=O)n(-c3nc(N4CCCC4C(F)(F)F)ccc3C(F)(F)F)n2C)c(F)c1 (stereo not shown) [Example 302, N-[5-(2,6-difluoro-4-methoxyphenyl)-1-methyl-3-oxo-2-[3-(trifluoromethyl)-6-[2-(trifluoromethyl)pyrrolidin-1-yl]pyridin-2-yl]-2,3-dihydro-1H-pyrazol-4-yl]-4-(difluoromethoxy)benzamide] | 1 nM | 2200 nM |
| COc1cc(F)c(-c2c(NC(=O)c3ccc(OC(F)F)cc3)c(=O)n(-c3nc(N4CCN(CC(F)(F)F)CC4)ccc3Cl)n2C)c(F)c1 [Example 239, N-(2-{3-chloro-6-[4-(2,2,2-trifluoroethyl)piperazin-1-yl]pyridin-2-yl}-5-(2,6-difluoro-4-methoxyphenyl)-1-methyl-3-oxo-2,3-dihydro-1H-pyrazol-4-yl)-4-(difluoromethoxy)benzamide] | 5 nM | 2700 nM |
| COc1cc(F)c(-c2c(NC(=O)c3ccc(OC(F)F)cc3)c(=O)n(-c3cccc(C(C)(C)O)n3)n2C)c(F)c1 [Example 85] | 5 nM | 750 nM |
| [2H]C([2H])([2H])Oc1cc(F)c(-c2c(NC(=O)c3ccc(OC(F)F)cc3)c(=O)n(-c3cccc(C(C)(C)O)n3)n2C)c(F)c1 [Example 404, N-(5-(2,6-difluoro-4-(methoxy-d3)phenyl)-2-(6-(2-hydroxypropan-2-yl)pyridin-2-yl)-1-methyl-3-oxo-2,3-dihydro-1H-pyrazol-4-yl)-4-(difluoromethoxy)benzamide] | 7 nM | 1500 nM |
| COc1cc(F)c(-c2c(NC(=O)c3ccc(OC(F)(F)F)cc3)c(=O)n(-c3ccc(C4CC4)cn3)n2C)c(F)c1 [Example 52, N-[2-(5-cyclopropylpyridin-2-yl)-5-(2,6-difluoro-4-methoxyphenyl)-1-methyl-3-oxo-2,3-dihydro-1H-pyrazol-4-yl]-4-(trifluoromethoxy)benzamide] | 9 nM | 190 nM |
| COc1cc(F)c(-c2c(NC(=O)c3ccc(OC(F)F)cc3)c(=O)n(-c3cc(Cl)ccn3)n2C)c(F)c1 [Example 152, N-[2-(4-chloropyridin-2-yl)-5-(2,6-difluoro-4-methoxyphenyl)-1-methyl-3-oxo-2,3-dihydro-1H-pyrazol-4-yl]-4-(difluoromethoxy)benzamide] | 10 nM | > 10000 nM |
| COc1cc(F)c(-c2c(NC(=O)c3ccc(OC(F)F)cc3)c(=O)n(-c3cc(F)ccc3Cl)n2C)c(F)c1 [Example 186, N-[2-(2-chloro-5-fluorophenyl)-5-(2,6-difluoro-4-methoxyphenyl)-1-methyl-3-oxo-2,3-dihydro-1H-pyrazol-4-yl]-4-(difluoromethoxy)benzamide] | 10 nM | > 10000 nM |
| COc1cc(F)c(-c2c(NC(=O)c3ccc(OC(F)F)cc3)c(=O)n(-c3cc(Cl)ccc3Cl)n2C)c(F)c1 [Example 176, N-[2-(2,5-dichlorophenyl)-5-(2,6-difluoro-4-methoxyphenyl)-1-methyl-3-oxo-2,3-dihydro-1H-pyrazol-4-yl]-4-(difluoromethoxy)benzamide] | 9 nM | > 10000 nM |
| COc1cc(OCC(C)(CO)CO)nc(-n2c(=O)c(NC(=O)c3ccc(OC(F)F)cc3)c(-c3c(F)cc(OC)cc3F)n2C)c1 [Example 325, N-(5-(2,6-Difluoro-4-methoxyphenyl)-2-(6-(3-hydroxy-2-(hydroxymethyl)-2-methylpropoxy)-4-methoxypyridin-2-yl)-1-methyl-3-oxo-2,3-dihydro-1H-pyrazol-4-yl)-4-(difluoromethoxy)benzamide] | 3 nM | > 10000 nM |
| COc1cc(F)c(-c2c(NC(=O)c3ccc(OC(F)F)cc3)c(=O)n(-c3nc(NCC(C)(C)C(N)=O)ccc3C(F)(F)F)n2C)c(F)c1 [Example 279, N-(2-{6-[(2-carbamoyl-2,2-dimethylethyl)amino]-3-(trifluoromethyl)pyridin-2-yl}-5-(2,6-difluoro-4-methoxyphenyl)-1-methyl-3-oxo-2,3-dihydro-1H-pyrazol-4-yl)-4-(difluoromethoxy)benzamide] | 2 nM | > 10000 nM |
| COc1cc(F)c(-c2c(NC(=O)c3ccc(OC(F)F)cc3)c(=O)n(-c3nc(N4CCN(CC(F)F)CC4)ccc3C(F)(F)F)n2C)c(F)c1 [Example 270, N-[5-(2,6-difluoro-4-methoxyphenyl)-2-{6-[4-(2,2-difluoroethyl)piperazin-1-yl]-3-(trifluoromethyl)pyridin-2-yl}-1-methyl-3-oxo-2,3-dihydro-1H-pyrazol-4-yl]-4-(difluoromethoxy)benzamide] | 6 nM | 3400 nM |
| CCc1cc(F)c(-c2c(NC(=O)c3ccc(OC(F)(F)F)cc3)c(=O)n(-c3cccc(C(C)(C)O)n3)n2C)c(F)c1 [Example 403, N-(5-(4-ethyl-2,6-difluorophenyl)-2-(6-(2-hydroxypropan-2-yl)pyridin-2-yl)-1-methyl-3-oxo-2,3-dihydro-1H-pyrazol-4-yl)-4-(trifluoromethoxy)benzamide] | 6 nM | 1700 nM |
